Results taken from US8680159B2, “Bradykinin 1 receptor modulating compounds” (Gruenenthal GmbH, priority 2010, dated 2014).
Like-named read-outs stand apart in the source and are kept apart here.

Columns and labels:
[1] = molecular target: T1, B1R receptor of the rat (CHO K1 cells stably transfected with the B1R gene of the rat) (Rattus norvegicus, UniProt P97583); test: Functional study on the bradykinin receptor 1 (B1R), Ca2+ fluorescence (Fluo-4) FLIPR/Novostar assay, rB1R cells; format: cell-based; conditions: for inhibition at 10 µM: CHO-K1, 10 μM, read-out: % Inhibition (r-B1R) at 10 μM
T1 construct: expressed in transfected cells; host or cells: CHO K1 cells (Chinese hamster ovary), stably transfected
T1 sequence (P97583 1-337): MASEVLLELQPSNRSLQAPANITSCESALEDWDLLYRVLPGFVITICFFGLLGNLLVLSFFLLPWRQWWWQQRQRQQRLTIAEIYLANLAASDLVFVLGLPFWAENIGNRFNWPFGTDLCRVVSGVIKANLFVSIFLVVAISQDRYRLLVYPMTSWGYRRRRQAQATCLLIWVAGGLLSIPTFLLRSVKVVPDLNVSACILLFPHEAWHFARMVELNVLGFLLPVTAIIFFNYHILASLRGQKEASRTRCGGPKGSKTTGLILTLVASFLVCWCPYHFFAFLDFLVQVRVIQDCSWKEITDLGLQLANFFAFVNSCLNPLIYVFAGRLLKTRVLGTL
In short: (§1)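 Stably transfected CHO K1 cells carrying human or rat B1R were Fluo-4 loaded and Ca2+ fluorescence read by FLIPR or Novostar. Compounds were added first at 10 μM for % activation, then the EC80 agonist was applied after 6-20 min (human: Lys-Des-Arg9-bradykinin; rat: Des-Arg9-bradykinin). % inhibition is relative to maximum achievable inhibition, and IC50 comes from concentration series.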

[2] = molecular target: T2, human B1R receptor (CHO K1 cells stably transfected with the human B1R gene) (Homo sapiens, UniProt P46663); test: Functional study on the bradykinin receptor 1 (B1R), Ca2+ fluorescence (Fluo-4) FLIPR/Novostar assay, hB1R cells; format: cell-based
T2 construct: expressed in transfected cells; host or cells: CHO K1 cells (Chinese hamster ovary), stably transfected
T2 sequence (P46663 1-353): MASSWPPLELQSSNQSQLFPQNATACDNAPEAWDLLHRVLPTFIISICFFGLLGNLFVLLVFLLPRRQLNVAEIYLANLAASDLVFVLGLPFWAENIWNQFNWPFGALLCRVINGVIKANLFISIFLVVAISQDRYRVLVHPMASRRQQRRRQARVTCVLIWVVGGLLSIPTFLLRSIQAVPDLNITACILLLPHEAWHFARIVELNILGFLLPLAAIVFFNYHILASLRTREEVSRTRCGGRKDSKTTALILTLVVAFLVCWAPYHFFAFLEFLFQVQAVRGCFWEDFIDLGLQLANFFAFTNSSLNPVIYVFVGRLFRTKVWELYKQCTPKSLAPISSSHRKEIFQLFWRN
In short: as §1

[3] = CHO-K1, read-out: % Inhibition (h-B1R) at 10 μM
[4] = CHO-K1, read-out: % inhibition (human B1R) at 10 μM

inhibition at 10 µM [1] | inhibition at 10 µM [2, 3] | % Inhibition (r-B1R) at 10 μM ([1]; 10 μM) | inhibition at 10 µM [2, 4] | SMILES
103% | 99% |  |  | CN(C(=O)c1ccc2c(c1)C(NC(=O)c1cccc(Cl)c1Cl)CCC2)C1CCN(c2ccncc2)CC1 (centres unmarked) [CC_H-03, 8-[(2,3-Dichloro-benzoyl)amino]-N-methyl-N-(1-pyridin-4-yl-piperidin-4-yl)-5,6,7,8-tetrahydro-naphthalene-2-carboxylic acid amide]
 | 99% | 104% |  | CN(C(=O)c1ccc2c(c1)C(NC(=O)c1cc(F)ccc1Cl)CCC2)C1CCN(c2ccncc2)CC1 (centres unmarked) [CC_H-04, 8-[(2-Chloro-5-fluoro-benzoyl)amino]-N-methyl-N-(1-pyridin-4-yl-piperidin-4-yl)-5,6,7,8-tetrahydro-naphthalene-2-carboxylic acid amide]
103% | 98% |  |  | CN(C(=O)c1ccc2c(c1)C(NC(=O)C1CCCCC1)CCC2)C1CCN(c2ccncc2)CC1 (centres unmarked) [CC_H-05, 8-(Cyclohexanecarbonylamino)-N-methyl-N-(1-pyridin-4-yl-piperidin-4-yl)-5,6,7,8-tetrahydro-naphthalene-2-carboxylic acid amide]
104% | 100% |  |  | CN(C(=O)c1ccc2c(c1)C(NC(=O)CCC1CCCC1)CCC2)C1CCN(c2ccncc2)CC1 (centres unmarked) [CC_H-06, 8-(3-Cyclopentyl-propanoylamino)-N-methyl-N-(1-pyridin-4-yl-piperidin-4-yl)-5,6,7,8-tetrahydro-naphthalene-2-carboxylic acid amide]
103% | 99% |  |  | CN(C(=O)c1ccc2c(c1)C(NC(=O)c1sccc1Cl)CCC2)C1CCN(c2ccncc2)CC1 (centres unmarked) [CC_H-07, 3-Chloro-N-[7-[methyl-(1-pyridin-4-yl-piperidin-4-yl)-carbamoyl]-1,2,3,4-tetrahydro-naphthalen-1-yl]-thiophene-2-carboxylic acid amide]
104% | 99% |  |  | CN(C(=O)c1ccc2c(c1)C(NC(=O)c1cncnc1)CCC2)C1CCN(c2ccncc2)CC1 (centres unmarked) [CC_H-08, N-[7-[Methyl-(1-pyridin-4-yl-piperidin-4-yl)-carbamoyl]-1,2,3,4-tetrahydro-naphthalen-1-yl]-pyrimidine-5-carboxylic acid amide]
103% | 99% |  |  | Cc1cccc(C)c1C(=O)NC1CCCc2ccc(C(=O)N(C)C3CCN(c4ccncc4)CC3)cc21 (centres unmarked) [CC_H-09, 8-[(2,6-Dimethyl-benzoyl)amino]-N-methyl-N-(1-pyridin-4-yl-piperidin-4-yl)-5,6,7,8-tetrahydro-naphthalene-2-carboxylic acid amide]
103% | 99% |  |  | CN(C(=O)c1ccc2c(c1)C(NC(=O)c1c(Cl)cccc1C(F)(F)F)CCC2)C1CCN(c2ccncc2)CC1 (centres unmarked) [CC_H-11, 8-[[2-Chloro-6-(trifluoromethyl)-benzoyl]amino]-N-methyl-N-(1-pyridin-4-yl-piperidin-4-yl)-5,6,7,8-tetrahydro-naphthalene-2-carboxylic acid amide]
104% | 100% |  |  | CN(C(=O)c1ccc2c(c1)C(NC(=O)c1cnccc1C(F)(F)F)CC2(C)C)C1CCN(c2ccncc2)CC1 (centres unmarked) [CC_H-12, N-[3,3-Dimethyl-6-[methyl-(1-pyridin-4-yl-piperidin-4-yl)-carbamoyl]-1,2-dihydro-inden-1-yl]-4-(trifluoromethyl)-pyridine-3-carboxylic acid amide]
78% | 100% |  |  | CN(C(=O)c1ccc2c(c1)CCC2NC(=O)c1sccc1Cl)C1CCN(c2ccncc2)CC1 (centres unmarked) [CC_H-13, 3-Chloro-N-[5-[methyl-(1-pyridin-4-yl-piperidin-4-yl)-carbamoyl]-2,3-dihydro-1H-inden-1-yl]-thiophene-2-carboxylic acid amide]
104% | 99% |  |  | CN(C(=O)c1ccc2c(c1)C(NC(=O)C1CCCCC1)CC2(C)C)C1CCN(c2ccncc2)CC1 (centres unmarked) [CC_H-14, 3-(Cyclohexanecarbonylamino)-N,1,1-trimethyl-N-(1-pyridin-4-yl-piperidin-4-yl)-2,3-dihydro-indene-5-carboxylic acid amide]
101% | 99% |  |  | CN(C(=O)NC1CC(C)(C)c2ccc(C(=O)N(C)C3CCN(c4ccncc4)CC3)cc21)c1ccccc1Cl (centres unmarked) [CC_H-15, 3-[[(2-Chlorophenyl)-methyl-carbamoyl]amino]-N,1,1-trimethyl-N-(1-pyridin-4-yl-piperidin-4-yl)-2,3-dihydro-indene-5-carboxylic acid amide]
104% | 99% |  |  | CN(C(=O)c1ccc2c(c1)C(NS(=O)(=O)c1c(Cl)cccc1C(F)(F)F)CCC2)C1CCN(c2ccncc2)CC1 (centres unmarked) [CC_H-16, 8-[[[2-Chloro-6-(trifluoromethyl)-phenyl]sulfonyl]amino]-N-methyl-N-(1-pyridin-4-yl-piperidin-4-yl)-5,6,7,8-tetrahydro-naphthalene-2-carboxylic acid amide]
 |  |  | 96% | Cc1cc(N2CCC(N(C)C(=O)c3ccc4c(c3)[C@H](NC(=O)CC(C)C(C)C)CC4)CC2)nc(C)n1 (stereo partly drawn) [Example H-223, (3R)-3-(3,4-Dimethyl-pentanoylamino)-N-[1-(2,6-dimethyl-pyrimidin-4-yl)-piperidin-4-y]-N-methyl-2,3-dihydro-1H-indene-5-carboxylic acid amide]
 |  |  | 98% | COc1cc(C(=O)N[C@@H]2CCc3ccc(C(=O)N(C)C4CCN(c5cc(C)nc(C)n5)CC4)cc32)on1 [Example H-224, N-[(1R)-6-[[1-(2,6-Dimethyl-pyrimidin-4-yl)-piperidin-4-yl]-methyl-carbamoyl]-2,3-dihydro-1H-inden-1-yl]-3-methoxy-isoxazole-5-carboxylic acid amide]
 |  |  | 100% | COc1cc(C(=O)N[C@@H]2CCc3ccc(C(=O)N(C)C4CCN(c5ccnc(C)c5)CC4)cc32)on1 [Example H-225, 3-Methoxy-N-[(1R)-6-[methyl-[1-(2-methyl-pyridin-4-yl)-piperidin-4-yl]-carbamoyl]-2,3-dihydro-1H-inden-1-yl]-isoxazole-5-carboxylic acid amide]
 |  |  | 99% | Cc1cc(N2CCC(N(C)C(=O)c3ccc4c(c3)[C@H](NC(=O)C3CCCC3)CC4)CC2)nc(C)n1 [Example H-226, (3R)-3-(Cyclopentanecarbonylamino)-N-[1-(2,6-dimethyl-pyrimidin-4-yl)-piperidin-4-yl]-N-methyl-2,3-dihydro-1H-indene-5-carboxylic acid amide]
 |  |  | 100% | Cc1cc(N2CCC(N(C)C(=O)c3ccc4c(c3)[C@H](NC(=O)C3CCCC3)CC4)CC2)ccn1 [Example H-227, (3R)-3-(Cyclopentanecarbonylamino)-N-methyl-N-[1-(2-methyl-pyridin-4-yl)-piperidin-4-yl]-2,3-dihydro-1H-indene-5-carboxylic acid amide]
 |  |  | 96% | CN(C)c1nccc(N2CCC(N(C)C(=O)c3ccc4c(c3)[C@H](NC(=O)C3CCCC3)CC4)CC2)n1 [Example H-228, (3R)-3-(Cyclopentanecarbonylamino)-N-[1-(2-dimethylamino-pyrimidin-4-yl)-piperidin-4-yl]-N-methyl-2,3-dihydro-1H-indene-5-carboxylic acid amide]
 |  |  | 98% | CCN(C(=O)C1CCCC1)[C@@H]1CCc2ccc(C(=O)N(C)C3CCN(c4cc(C)nc(C)n4)CC3)cc21 [Example H-229, (3R)-3-(Cyclopentanecarbonyl-ethyl-amino)-N-[1-(2,6-dimethyl-pyrimidin-4-yl)-piperidin-4-yl]-N-methyl-2,3-dihydro-1H-indene-5-carboxylic acid amide]
 |  |  | 98% | Cc1cc(N2CCC(N(C)C(=O)c3ccc4c(c3)[C@H](N(C)C(=O)C3CCCC3)CC4)CC2)nc(C)n1 [Example H-230, (3R)-3-(Cyclopentanecarbonyl-methyl-amino)-N-[1-(2,6-dimethyl-pyrimidin-4-yl)-piperidin-4-yl]-N-methyl-2,3-dihydro-1H-indene-5-carboxylic acid amide]
 |  |  | 100% | CN(C(=O)c1ccc2c(c1)[C@H](NC(=O)c1ccccc1Cl)CC2)C1CCN(c2ccnc(N)n2)CC1 [Example H-244, (3R)-N-[1-(2-Amino-pyrimidin-4-yl)-piperidin-4-yl]-3-[(2-chloro-benzoyl)amino]-N-methyl-2,3-dihydro-1H-indene-5-carboxylic acid amide]
